According to article PMC6478789, “A chemical toolbox for the study of bromodomains and epigenetic signaling” (Nature Communications, 2019):
Where two headings read alike, the source gives them in different places.

Key:
GCN5L2 = GCN5L2 (Homo sapiens, UniProt Q92830); assay: Histone acetyltransferase (HAT) activity assay; format: biochemical;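 note: selectivity screen of BRD probe compounds across a panel of histone acetyltransferases, HAT activity in % with compound at 1 or 10 µM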
three TNBC lines = assay: Combinatorial screen of BRD inhibitors with or without BAY-876 (confluency); format: cell-based, human; conditions: 3 μM probe + 3 μM BAY-876
Procedure: Fig. 6 BRD inhibitors leverage metabolic adaptations induced by glucose transporter I (GLUT1) inhibition in TNBC. a BRD inhibitor screening across ten TNBC cell lines. Cells were treated with indicated BRD inhibitors at 3 μM for 7 days. Confluency was measured using an IncuCyte ZOOM live cell imaging device. Data shown are mean ± s.d. of n = 4 independent cell culture grown and treated cells. A two-sided Student’s t test was used to derive the p-values. b SLC2A1 gene expression in the The Cancer Genome Atlas (TCGA) breast datasets. The cohorts were divided into TNBCs (red) and non-TNBCs (blue) according to PAM50 classification. Gene expression is reported as median-centered expression log2 values. The number of patients (n) per group is indicated. P-values were determined using a Wilcoxon's rank-sum test. c Glucose uptake in MDA-MB-436 cells in response to BAY-876 treatment relative to vehicle. MDA-MB-436 cells were treated with dimethyl sulfoxide (DMSO) or 3 µM BAY-876 for 5 days. Graph indicates mean, error bars denote s.d. from three independent assays and p-value was computed using the Benjamini-Hochberg t test; ***p < 0.001. d Effects of BAY-876 treatment on the intracellular acetyl-CoA level. Graph indicates mean, error bars denote s.d. from three independent assays and p-value was computed using the Benjamini-Hochberg t test; ***p < 0.001. e Effects of BAY-876 treatment on intracellular NAD^+/NADH level. Graph indicates the mean, error bars denote s.d. from three independent assays and p-value computed using the Benjamini-Hochberg t test; **p < 0.01. f Immunoblot analysis of H3 and H4 acetylation in MDA-MB-436 cells before and after BAY-876 treatment. P-value computed using the Benjamini-Hochberg t test; ***p < 0.001. g Cell growth effects of BAY-876 treatment on three representative cell lines. n.s. not significant. h Combinatorial screening of BRD inhibitors with or without 3 μM BAY-876 across ten TNBC cell lines. Cell confluency was obtained from the endpoint Incucyte scanning. (Left) Heatmap of the combinatorial screening results; (Right) Cell confluency after treatment with three potential BRDi candidates at 3 μM in the presence or absence of 3 μM BAY-876 in three representative cell lines. Graph indicates mean, error bars denote s.d. from three independent assays and p-values were computed using the Benjamini-Hochberg t test; **p < 0.01; ***p < 0.001. Raw data images are available in Supplementary Fig. 4
(§1) TNBC cell lines were seeded in sterile, transparent 384-well plates at 500 cells per well in 50 µl media. Chemical probes were delivered in dimethyl sulfoxide (DMSO). Cell confluency at 7 days was evaluated using an Incucyte ZOOM live cell imaging device (Essen Bioscence) and analyzed with the Incucyte ZOOM (2016A) software based on phase contrast image.

MYST1 = target: T1, MYST1 (Homo sapiens, UniProt Q9H7Z6); assay: Histone acetyltransferase (HAT) activity assay; format: biochemical;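 note: selectivity screen across a panel of histone acetyltransferases, with compounds tested at 1 and 10 µM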
T1 sequence (Q9H7Z6 1-458): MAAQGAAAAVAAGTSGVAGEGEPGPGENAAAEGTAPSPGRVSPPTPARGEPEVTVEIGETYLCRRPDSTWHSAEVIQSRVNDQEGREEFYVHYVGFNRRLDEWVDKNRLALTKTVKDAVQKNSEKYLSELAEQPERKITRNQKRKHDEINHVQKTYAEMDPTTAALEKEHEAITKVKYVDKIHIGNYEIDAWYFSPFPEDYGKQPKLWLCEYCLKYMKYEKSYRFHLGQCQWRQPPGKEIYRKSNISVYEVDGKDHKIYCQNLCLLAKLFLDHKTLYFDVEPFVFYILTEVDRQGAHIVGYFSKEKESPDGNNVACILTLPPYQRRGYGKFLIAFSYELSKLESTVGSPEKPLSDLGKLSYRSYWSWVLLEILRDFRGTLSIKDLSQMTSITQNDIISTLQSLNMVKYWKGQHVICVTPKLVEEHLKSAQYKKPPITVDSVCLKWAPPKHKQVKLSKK

HAT1 = target: T2, HAT1 (Homo sapiens, UniProt O14929); assay: Histone acetyltransferase (HAT) activity assay; format: biochemical;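 note: HAT selectivity screen of BRD probe compounds, enzyme activity in % measured with compound at 1 µM and 10 µM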
T2 sequence (O14929 1-419): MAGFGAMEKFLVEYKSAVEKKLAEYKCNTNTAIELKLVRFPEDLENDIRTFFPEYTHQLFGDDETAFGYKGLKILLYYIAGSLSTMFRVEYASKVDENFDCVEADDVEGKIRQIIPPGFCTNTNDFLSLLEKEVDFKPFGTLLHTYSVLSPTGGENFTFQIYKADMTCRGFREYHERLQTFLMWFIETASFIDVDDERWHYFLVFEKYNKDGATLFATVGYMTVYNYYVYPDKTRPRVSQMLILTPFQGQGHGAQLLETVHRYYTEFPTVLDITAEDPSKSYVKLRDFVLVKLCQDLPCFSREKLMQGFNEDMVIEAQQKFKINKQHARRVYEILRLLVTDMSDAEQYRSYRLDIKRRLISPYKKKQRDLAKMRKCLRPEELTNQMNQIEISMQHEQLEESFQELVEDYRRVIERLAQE

MYST3 = MYST3 (Homo sapiens, UniProt Q92794); assay: Histone acetyltransferase (HAT) activity assay; format: biochemical;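 note: selectivity screen of bromodomain probe compounds across a panel of histone acetyltransferases, read out as enzyme activity in %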
Chain of MYST3 (Q92794 whole entry, species assumed): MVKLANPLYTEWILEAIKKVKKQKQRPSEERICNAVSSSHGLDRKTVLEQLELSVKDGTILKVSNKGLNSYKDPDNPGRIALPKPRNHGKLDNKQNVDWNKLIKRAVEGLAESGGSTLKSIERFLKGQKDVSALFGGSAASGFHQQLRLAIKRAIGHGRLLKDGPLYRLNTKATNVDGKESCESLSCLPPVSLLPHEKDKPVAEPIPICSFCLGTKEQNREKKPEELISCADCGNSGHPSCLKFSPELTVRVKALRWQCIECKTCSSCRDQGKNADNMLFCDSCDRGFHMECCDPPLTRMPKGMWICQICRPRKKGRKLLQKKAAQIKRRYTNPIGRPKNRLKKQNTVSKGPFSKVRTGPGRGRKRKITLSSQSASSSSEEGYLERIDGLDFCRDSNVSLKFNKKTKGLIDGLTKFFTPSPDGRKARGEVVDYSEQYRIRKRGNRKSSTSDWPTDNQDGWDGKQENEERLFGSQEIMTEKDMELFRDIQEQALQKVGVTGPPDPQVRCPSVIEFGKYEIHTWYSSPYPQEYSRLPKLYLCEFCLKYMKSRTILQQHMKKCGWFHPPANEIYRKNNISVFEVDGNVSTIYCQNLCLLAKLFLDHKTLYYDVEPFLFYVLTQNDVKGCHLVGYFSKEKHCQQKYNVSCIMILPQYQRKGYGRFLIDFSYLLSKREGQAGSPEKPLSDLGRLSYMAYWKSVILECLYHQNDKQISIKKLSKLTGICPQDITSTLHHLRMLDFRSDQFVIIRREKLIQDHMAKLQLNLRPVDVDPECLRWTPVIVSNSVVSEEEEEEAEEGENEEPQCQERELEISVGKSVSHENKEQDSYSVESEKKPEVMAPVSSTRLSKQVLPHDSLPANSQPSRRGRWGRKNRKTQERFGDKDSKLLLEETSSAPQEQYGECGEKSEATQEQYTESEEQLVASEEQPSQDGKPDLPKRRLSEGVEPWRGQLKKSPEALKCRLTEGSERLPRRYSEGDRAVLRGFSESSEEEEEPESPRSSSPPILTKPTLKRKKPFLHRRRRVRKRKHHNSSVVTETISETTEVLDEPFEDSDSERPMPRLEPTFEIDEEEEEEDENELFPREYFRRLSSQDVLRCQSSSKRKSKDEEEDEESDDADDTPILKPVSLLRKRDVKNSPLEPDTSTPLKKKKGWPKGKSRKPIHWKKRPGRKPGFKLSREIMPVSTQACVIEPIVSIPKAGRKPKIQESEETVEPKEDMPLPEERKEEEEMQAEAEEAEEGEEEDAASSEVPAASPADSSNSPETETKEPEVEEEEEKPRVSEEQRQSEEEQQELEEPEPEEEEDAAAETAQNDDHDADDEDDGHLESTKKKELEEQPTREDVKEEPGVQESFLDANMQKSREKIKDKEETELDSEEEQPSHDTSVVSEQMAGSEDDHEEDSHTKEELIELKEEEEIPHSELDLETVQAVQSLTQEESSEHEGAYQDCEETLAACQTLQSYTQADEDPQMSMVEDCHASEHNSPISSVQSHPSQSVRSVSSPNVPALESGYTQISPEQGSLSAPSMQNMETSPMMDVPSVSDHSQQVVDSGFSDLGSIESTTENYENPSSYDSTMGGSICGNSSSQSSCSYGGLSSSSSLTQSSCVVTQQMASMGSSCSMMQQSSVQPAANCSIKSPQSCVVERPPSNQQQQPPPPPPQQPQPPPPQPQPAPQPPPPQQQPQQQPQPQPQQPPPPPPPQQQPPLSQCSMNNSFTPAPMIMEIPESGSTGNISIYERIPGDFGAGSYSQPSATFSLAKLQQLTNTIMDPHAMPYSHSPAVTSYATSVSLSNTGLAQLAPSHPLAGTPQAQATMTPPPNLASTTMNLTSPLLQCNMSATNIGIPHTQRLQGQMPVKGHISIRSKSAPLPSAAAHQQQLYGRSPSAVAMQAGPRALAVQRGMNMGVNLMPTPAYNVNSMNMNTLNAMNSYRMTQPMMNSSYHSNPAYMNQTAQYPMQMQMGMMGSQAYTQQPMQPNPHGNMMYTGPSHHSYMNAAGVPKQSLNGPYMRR

EP300 = EP300 (Homo sapiens, UniProt Q09472); assay: Histone acetyltransferase (HAT) activity assay; format: biochemical;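 note: selectivity screen of bromodomain probe compounds against histone acetyltransferases, with enzyme activity given in percent for compounds tested at 1 and 10 µM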
Chain of EP300 (Q09472 whole entry, species assumed): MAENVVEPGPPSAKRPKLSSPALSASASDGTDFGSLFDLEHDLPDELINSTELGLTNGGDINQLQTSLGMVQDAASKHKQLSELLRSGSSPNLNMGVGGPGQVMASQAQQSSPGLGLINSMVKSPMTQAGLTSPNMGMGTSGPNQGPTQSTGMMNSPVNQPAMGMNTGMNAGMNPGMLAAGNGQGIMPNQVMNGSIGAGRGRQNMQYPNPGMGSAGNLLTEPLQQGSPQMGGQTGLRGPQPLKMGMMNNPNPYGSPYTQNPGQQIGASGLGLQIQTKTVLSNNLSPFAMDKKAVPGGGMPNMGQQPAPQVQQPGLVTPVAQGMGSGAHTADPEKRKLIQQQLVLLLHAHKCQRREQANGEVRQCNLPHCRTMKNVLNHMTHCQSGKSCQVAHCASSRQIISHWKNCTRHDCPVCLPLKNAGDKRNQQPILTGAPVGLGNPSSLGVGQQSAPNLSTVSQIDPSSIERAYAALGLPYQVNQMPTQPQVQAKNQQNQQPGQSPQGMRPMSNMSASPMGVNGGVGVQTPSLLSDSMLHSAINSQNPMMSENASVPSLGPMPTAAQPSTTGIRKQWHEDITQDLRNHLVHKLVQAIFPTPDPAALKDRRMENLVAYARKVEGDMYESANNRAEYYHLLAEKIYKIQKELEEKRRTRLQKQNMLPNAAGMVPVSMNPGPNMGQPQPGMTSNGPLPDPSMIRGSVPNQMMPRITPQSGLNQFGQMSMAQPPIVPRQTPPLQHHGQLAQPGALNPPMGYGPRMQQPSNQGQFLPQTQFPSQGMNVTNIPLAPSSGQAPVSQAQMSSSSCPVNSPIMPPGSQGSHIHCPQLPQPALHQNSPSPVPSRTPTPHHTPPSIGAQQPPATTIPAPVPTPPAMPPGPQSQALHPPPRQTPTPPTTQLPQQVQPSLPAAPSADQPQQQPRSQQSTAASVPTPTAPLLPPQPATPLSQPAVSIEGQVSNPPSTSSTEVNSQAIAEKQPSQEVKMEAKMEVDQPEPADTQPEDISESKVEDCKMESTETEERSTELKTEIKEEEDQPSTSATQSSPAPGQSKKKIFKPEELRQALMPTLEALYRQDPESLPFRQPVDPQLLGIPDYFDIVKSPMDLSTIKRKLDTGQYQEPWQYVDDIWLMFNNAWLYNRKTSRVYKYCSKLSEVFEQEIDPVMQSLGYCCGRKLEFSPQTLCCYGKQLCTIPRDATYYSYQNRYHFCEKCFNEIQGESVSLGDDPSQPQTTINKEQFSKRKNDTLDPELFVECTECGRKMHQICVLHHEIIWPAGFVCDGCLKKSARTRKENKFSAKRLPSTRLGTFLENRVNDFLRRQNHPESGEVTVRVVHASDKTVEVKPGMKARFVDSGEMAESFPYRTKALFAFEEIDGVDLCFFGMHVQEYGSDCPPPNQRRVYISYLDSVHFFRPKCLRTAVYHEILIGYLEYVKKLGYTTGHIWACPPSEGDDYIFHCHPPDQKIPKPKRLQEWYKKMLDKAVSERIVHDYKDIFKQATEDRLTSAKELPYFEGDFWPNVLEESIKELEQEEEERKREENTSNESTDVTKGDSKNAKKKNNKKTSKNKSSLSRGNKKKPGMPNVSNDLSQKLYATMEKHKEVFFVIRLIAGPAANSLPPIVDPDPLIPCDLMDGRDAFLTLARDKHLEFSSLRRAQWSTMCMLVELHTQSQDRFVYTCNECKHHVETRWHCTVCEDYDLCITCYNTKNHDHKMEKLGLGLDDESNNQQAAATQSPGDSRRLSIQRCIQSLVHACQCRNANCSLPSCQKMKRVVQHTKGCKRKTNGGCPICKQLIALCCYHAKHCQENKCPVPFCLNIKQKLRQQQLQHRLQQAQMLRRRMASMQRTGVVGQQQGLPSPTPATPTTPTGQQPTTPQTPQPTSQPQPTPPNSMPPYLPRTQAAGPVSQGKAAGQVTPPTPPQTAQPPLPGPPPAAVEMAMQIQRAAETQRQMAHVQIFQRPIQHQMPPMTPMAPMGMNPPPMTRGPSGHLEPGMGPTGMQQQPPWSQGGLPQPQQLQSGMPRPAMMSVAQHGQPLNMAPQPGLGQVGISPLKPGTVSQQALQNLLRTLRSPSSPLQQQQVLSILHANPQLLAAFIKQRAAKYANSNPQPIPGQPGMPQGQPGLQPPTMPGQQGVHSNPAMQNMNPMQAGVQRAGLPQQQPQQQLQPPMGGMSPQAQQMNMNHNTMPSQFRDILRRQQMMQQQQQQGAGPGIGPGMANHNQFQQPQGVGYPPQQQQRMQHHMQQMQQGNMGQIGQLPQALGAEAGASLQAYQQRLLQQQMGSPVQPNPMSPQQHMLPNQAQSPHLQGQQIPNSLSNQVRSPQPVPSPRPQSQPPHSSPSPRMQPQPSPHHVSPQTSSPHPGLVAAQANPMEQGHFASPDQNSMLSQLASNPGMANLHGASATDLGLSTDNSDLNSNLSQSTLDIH

MDA-MB-436 cells = assay: Confluency with BRPF inhibitors and BAY-876; format: cell-based, human; conditions: 3 μM, 7 days
Procedure: Graph indicates mean, error bars denote s.d. from eight wells (from two independent assays) and p-value was computed using the Benjamini-Hochberg t test; ***p < 0.001. d Immunoblot validation of BRPF knockdown in MDA-MB-436 cells. e Quantitative real-time PCR (RT-qPCR) validation of BRPF knockdown in MDA-MB-436 cells. […] Raw data images are available in Supplementary Fig. 4
as §1

CBP/p300 over BRD4 = conditions: cited from earlier work
CBP/p300 [1] = target: CBP/p300; design: method as in ref 10 (suppl.); conditions: ref 10 (suppl.); read-out: BRET (KD (nM) column); cited from earlier work
CBP/p300 [2] = target: CBP/p300; design: method as in ref 10 (suppl.); conditions: ref 10 (suppl.); read-out: TR-FRET (KD (nM) column); cited from earlier work
ten TNBC cell lines = assay: High-throughput screening of bromodomain inhibitors in TNBC panel (confluency); format: cell-based, human; conditions: 3 μM, 7 days
Procedure: Fig. 6 BRD inhibitors leverage metabolic adaptations induced by glucose transporter I (GLUT1) inhibition in TNBC. a BRD inhibitor screening across ten TNBC cell lines. Cells were treated with indicated BRD inhibitors at 3 μM for 7 days. Confluency was measured using an IncuCyte ZOOM live cell imaging device. Data shown are mean ± s.d. of n = 4 independent cell culture grown and treated cells. A two-sided Student’s t test was used to derive the p-values. b SLC2A1 gene expression in the The Cancer Genome Atlas (TCGA) breast datasets. The cohorts were divided into TNBCs (red) and non-TNBCs (blue) according to PAM50 classification. Gene expression is reported as median-centered expression log2 values. The number of patients (n) per group is indicated. P-values were determined using a Wilcoxon's rank-sum test. c Glucose uptake in MDA-MB-436 cells in response to BAY-876 treatment relative to vehicle. MDA-MB-436 cells were treated with dimethyl sulfoxide (DMSO) or 3 µM BAY-876 for 5 days. […]
TNBC cell lines were seeded in sterile, transparent 384-well plates at 500 cells per well in 50 µl media. […] Cell confluency at 7 days was evaluated using an Incucyte ZOOM live cell imaging device (Essen Bioscence) and analyzed with the Incucyte ZOOM (2016A) software based on phase contrast image.

BRD3(2) = BRD3(2) (Homo sapiens, UniProt Q15059); design: purchased; conditions: ITC data; ref 7 (suppl.); cited from earlier work
Chain of BRD3(2) (Q15059 306-415 limits assumed): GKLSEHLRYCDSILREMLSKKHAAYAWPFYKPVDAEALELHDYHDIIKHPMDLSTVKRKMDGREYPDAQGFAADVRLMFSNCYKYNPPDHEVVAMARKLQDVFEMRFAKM

BRDT(2) = BRDT(2) (Homo sapiens, UniProt Q58F21); design: purchased; method as in ref 7 (suppl.); conditions: ITC data; ref 7 (suppl.); cited from earlier work
BRD3(1) = BRD3(1) (Homo sapiens, UniProt Q15059); design: purchased; conditions: ITC data; ref 7 (suppl.); cited from earlier work
Chain of BRD3(1) (Q15059 34-140 limits assumed): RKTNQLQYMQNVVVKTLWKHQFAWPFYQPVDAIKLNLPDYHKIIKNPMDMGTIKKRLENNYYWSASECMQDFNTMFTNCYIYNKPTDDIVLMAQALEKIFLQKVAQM

BRD2(2) = BRD2(2) (Homo sapiens, UniProt P25440); design: purchased; method as in ref 7 (suppl.); conditions: ITC data; ref 7 (suppl.); cited from earlier work
Chain of BRD2(2) (P25440 344-453 limits assumed): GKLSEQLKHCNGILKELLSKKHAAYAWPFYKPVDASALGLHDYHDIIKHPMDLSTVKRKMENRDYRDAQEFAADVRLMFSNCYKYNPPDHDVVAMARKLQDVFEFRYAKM

BRDT(1) = BRDT(1) (Homo sapiens, UniProt Q58F21); design: purchased; conditions: ITC data; ref 7 (suppl.); cited from earlier work
BRD2(1) = BRD2(1) (Homo sapiens, UniProt P25440); design: purchased; conditions: ITC data; ref 7 (suppl.); cited from earlier work
Chain of BRD2(1) (P25440 74-180 limits assumed): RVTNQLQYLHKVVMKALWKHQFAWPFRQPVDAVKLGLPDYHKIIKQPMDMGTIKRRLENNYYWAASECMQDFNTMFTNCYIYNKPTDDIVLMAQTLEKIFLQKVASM

| Structure (SMILES) | HATs Activity (%) (GCN5L2; 1µM) | HATs Activity (%) (GCN5L2; 10µM) | viability in combination with BAY-876 (three TNBC lines) | HATs Activity (%) (MYST1; 1µM) | HATs Activity (%) (MYST1; 10µM) | HATs Activity (%) (HAT1; 1µM) | HATs Activity (%) (HAT1; 10µM) | HATs Activity (%) (MYST3; 1µM) | HATs Activity (%) (MYST3; 10µM) | HATs Activity (%) (EP300; 1µM) | HATs Activity (%) (EP300; 10µM) | also measured |
| --- | --- | --- | --- | --- | --- | --- | --- | --- | --- | --- | --- | --- |
| CCn1cc(-c2cccc(C(F)(F)F)c2)c2sc(C(=N)NC3CCS(=O)(=O)CC3)cc2c1=O [I-BRD9] | 104 | 102 | significant decrease in viability | 104 | 104 | 103 | 101 | 101 | 99 | 96 | 99 | combination effect with BAY-876 across the three cell lines (three TNBC lines): efficacy in only one of the three tested TNBC lines |
| COc1ccccc1C(=O)Nc1cc2c(cc1N1CCCC1)n(C)c(=O)n2C [PFI-4] |  |  |  |  |  |  |  |  |  |  |  | synergy with BAY-876 (MDA-MB-436 cells): no significant effect |
| CNC(=O)N1CCc2c(c(N3CCCc4cc(-c5cnn(C)c5)c(C(F)F)cc43)nn2C2CCOCC2)C1 [GNE-781] |  |  |  |  |  |  |  |  |  |  |  | selectivity over BRD4 for CBP/p300 (CBP/p300 over BRD4): 650 fold; Kd (CBP/p300 [1]): 6.2 nM; Kd (CBP/p300 [2]): 0.94 nM |
| COc1ccccc1S(=O)(=O)Nc1ccc2c(c1)CN(C)C(=O)N2 [PFI-1] | 96 | 93 | significant decrease in viability | 101 | 95 | 102 | 93 | 105 | 86 | 99 | 100 | anti-proliferative effect (confluency) (ten TNBC cell lines): strong anti-proliferative effects; Kd (BRD3(2)): 76 nM; Kd (BRDT(2)): 221 nM; Kd (BRD3(1)): 80 nM; Kd (BRD2(2)): 144 nM; Kd (BRDT(1)): 85 nM; Kd (BRD2(1)): 108 nM |
